# According to paper PMC12136037, “Type II kinase inhibitors that target Parkinson’s disease–associated LRRK2” (Science Advances, 2025):
# Where “and” joins values, the source holds several entries; their conditions need not be identical. Equal entries are not always repeated.
# Assays:
# [1] = molecular target: T1, LRRK2^KW (Homo sapiens, UniProt Q5S007); experiment: DSF thermal stabilization of LRRK2^KW; assay type: binding; settings: DSF, LRRK2^KW, 10 μM inhibitor
# T1 construct: LRRK2 R1847 to E2527; His6-Z-tag (TEV cleavable) (N, cleaved yes); host or cells: Sf9 insect cells (baculovirus)
# T1 sequence (Q5S007 1847-2527): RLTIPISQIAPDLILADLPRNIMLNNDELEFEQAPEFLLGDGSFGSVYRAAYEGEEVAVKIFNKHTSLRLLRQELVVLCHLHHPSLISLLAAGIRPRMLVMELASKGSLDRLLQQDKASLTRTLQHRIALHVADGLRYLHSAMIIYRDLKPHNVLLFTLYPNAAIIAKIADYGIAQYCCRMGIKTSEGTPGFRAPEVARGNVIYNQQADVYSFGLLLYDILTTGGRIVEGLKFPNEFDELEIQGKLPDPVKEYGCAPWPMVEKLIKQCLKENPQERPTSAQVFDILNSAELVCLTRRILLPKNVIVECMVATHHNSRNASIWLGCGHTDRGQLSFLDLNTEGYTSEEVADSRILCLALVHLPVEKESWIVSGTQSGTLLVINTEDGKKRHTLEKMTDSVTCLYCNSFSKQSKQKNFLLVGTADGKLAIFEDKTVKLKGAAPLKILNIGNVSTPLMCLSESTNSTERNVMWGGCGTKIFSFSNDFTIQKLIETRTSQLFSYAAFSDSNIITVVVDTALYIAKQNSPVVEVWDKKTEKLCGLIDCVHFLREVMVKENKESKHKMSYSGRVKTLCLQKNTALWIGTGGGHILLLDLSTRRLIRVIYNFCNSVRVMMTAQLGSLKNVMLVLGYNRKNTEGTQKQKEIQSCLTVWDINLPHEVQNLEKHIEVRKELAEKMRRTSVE
# Procedure: To characterize binding between small molecules and LRRK2^KW, induced thermal stabilization was measured by DSF according to previously established protocols ([47]). In brief, LRRK2^KW was diluted to 4 μM in 20 mM Hepes (pH 7.4), 150 mM NaCl, 0.5 mM TCEP, 0.5% glycerol, 20 μM GDP, and 2.5 mM MgCl2, and SYPRO Orange was added (1:1000, MilliporeSigma). Inhibitor (10 μM) to be tested was added to a final sample volume of 20 μl per well of a 96-well plate (white, Starlab). […] The fluorescence was plotted against the temperature, and the melting point (Tm) was determined as the minimum of the first derivative relative to the control.
# [2] = molecular target: T2, LRRK2^RCKW (Homo sapiens, UniProt Q5S007); experiment: Biochemical LRRK2 activity assay (PhosphoSense, AssayQuant SOX peptide AQT0615); settings: for normalized response (LRRK2 activity): normalized to 0% (no kinase) and 100% (no inhibitor) control, two singlicate columns per compound
# T2 construct: LRRK2 R1327 to E2527; His6-Z-tag (TEV cleavable) (N, cleaved yes); host or cells: Sf9 insect cells (baculovirus)
# T2 sequence (Q5S007 1327-2527): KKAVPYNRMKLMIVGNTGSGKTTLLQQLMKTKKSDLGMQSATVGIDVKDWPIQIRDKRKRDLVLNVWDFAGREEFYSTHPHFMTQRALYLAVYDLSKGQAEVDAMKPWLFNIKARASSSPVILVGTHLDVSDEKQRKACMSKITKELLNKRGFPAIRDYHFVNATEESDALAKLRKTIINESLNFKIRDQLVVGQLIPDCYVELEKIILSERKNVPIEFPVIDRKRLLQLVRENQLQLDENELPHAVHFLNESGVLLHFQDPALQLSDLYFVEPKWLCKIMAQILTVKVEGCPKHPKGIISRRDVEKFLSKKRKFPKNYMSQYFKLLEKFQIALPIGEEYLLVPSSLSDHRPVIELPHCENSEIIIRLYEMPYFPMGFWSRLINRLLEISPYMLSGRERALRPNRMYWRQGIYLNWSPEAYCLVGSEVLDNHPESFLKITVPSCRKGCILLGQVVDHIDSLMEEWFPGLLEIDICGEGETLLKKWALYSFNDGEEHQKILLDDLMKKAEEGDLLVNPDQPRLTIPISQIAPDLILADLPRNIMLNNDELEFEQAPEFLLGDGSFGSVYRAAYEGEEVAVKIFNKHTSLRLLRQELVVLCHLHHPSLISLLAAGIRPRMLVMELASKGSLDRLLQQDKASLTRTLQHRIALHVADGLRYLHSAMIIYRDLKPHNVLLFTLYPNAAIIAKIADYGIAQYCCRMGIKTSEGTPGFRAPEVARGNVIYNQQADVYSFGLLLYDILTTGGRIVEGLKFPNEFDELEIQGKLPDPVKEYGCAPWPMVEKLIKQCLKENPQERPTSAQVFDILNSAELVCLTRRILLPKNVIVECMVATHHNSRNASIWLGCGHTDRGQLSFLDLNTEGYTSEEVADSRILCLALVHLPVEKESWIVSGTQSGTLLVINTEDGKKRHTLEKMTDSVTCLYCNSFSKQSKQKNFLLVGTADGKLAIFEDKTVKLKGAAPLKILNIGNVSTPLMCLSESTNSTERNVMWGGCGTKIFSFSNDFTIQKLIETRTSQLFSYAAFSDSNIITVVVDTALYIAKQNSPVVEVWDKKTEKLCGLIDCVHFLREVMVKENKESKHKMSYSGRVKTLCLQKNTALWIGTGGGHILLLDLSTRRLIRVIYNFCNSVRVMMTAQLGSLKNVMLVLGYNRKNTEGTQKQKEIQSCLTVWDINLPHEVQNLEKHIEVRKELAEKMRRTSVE
# Procedure: Two wells per compound were used as 0% (without protein and compound) and 100% (without compound) control. […] The 0% control wells were filled with 10 μl of pure reaction buffer. With the ECHO, 5 nl of 100 mM ATP was pipetted into each well, the plates were centrifuged at 1500g for 2 min, and the reaction was incubated at room temperature for 4 hours. The fluorescence of the SOX-peptide after 360-nm excitation was measured at 487-nm emission with a PHERAstar plate reader (BMG Labtech). The IC50 values were calculated from a nonlinear regression of the log[inhibitor] versus the normalized response with GraphPad Prism 8 (www.graphpad.com/, RRID:SCR_002798).
SMILES,∆Tm (K) [1] [K],"IC50 ([2]; LRRK2^RCKW kinase activity, in vitro) [µM]",normalized response (LRRK2 activity) ([2]; log[inhibitor(mol)] -4.82391),normalized response (LRRK2 activity) ([2]; log[inhibitor(mol)] -5.12494),normalized response (LRRK2 activity) ([2]; log[inhibitor(mol)] -5.60206),normalized response (LRRK2 activity) ([2]; log[inhibitor(mol)] -6.30103),normalized response (LRRK2 activity) ([2]; log[inhibitor(mol)] -6.90309),normalized response (LRRK2 activity) ([2]; log[inhibitor(mol)] -7.30103),normalized response (LRRK2 activity) ([2]; log[inhibitor(mol)] -7.60206),normalized response (LRRK2 activity) ([2]; log[inhibitor(mol)] -8.09691),normalized response (LRRK2 activity) ([2]; log[inhibitor(mol)] -8.61979),normalized response (LRRK2 activity) ([2]; log[inhibitor(mol)] -9.09691),normalized response (LRRK2 activity) ([2]; log[inhibitor(mol)] -9.39794),"IC50 ([2]; Table S2, bound printed in μM under head IC50 [nM]) [µM]"
COc1cc(C(=O)N2CCOCC2)c(F)cc1Nc1nc(N(C)C)c2c(-c3cccc(NC(=O)Nc4cc(C(C)(C)C)nn4-c4ccc(C)cc4)c3)c[nH]c2n1 [Compound 34],0.0,2.82 ± 1.7,44.1151% and 42.1018%,30.8718% and 33.6962%,50.116% and 50.3008%,30.7392% and 30.2826%,79.3769% and 75.1697%,94.0291% and 93.4725%,99.2059% and 99.0146%,90.4133% and 94.0334%,94.5074% and 96.3707%,98.4515% and 93.6442%,99.1494% and 99.7973%,–
COc1cc(S(C)(=O)=O)ccc1Nc1nc(N(C)C)c2c(-c3cccc(NC(=O)Nc4cc(C(C)(C)C)nn4-c4ccc5ncccc5c4)c3)c[nH]c2n1 [Compound 35],1.5,–,–,–,–,–,115.444% and 117.007%,105.55% and 105.293%,108.325% and 105.046%,100.105% and 95.8379%,94.7466% and 91.6315%,101.92% and 85.7909%,98.761% and 96.3918%,–
O=C(Nc1ccc(F)cc1)C1(C(=O)Nc2cccc(-c3ccc4n[nH]cc4c3)c2)CC1 [Compound 47],3.0,–,115.049% and 93.8598%,99.0859% and 93.2217%,93.6133% and 98.8538%,94.4738% and 97.6114%,97.3406% and 97.6501%,98.4526% and 101.585%,103.828% and 100.546%,94.8702% and 94.0339%,91.8535% and 95.7453%,97.0119% and 90.234%,103.089% and 99.1004%,> 15
"Cn1cc(-c2c[nH]c3ncnc(N4CCOCC4)c23)cc1C#N [PF-360, reference compound]",14.0 ± 0.7,–,-6.35% and -14.8637%,-13.9757% and -14.0596%,-14.9079% and -13.9094%,-16.2775% and -13.8122%,-15.2172% and -15.9196%,-14.8814% and -10.0789%,–,-1.676% and 1.585%,61.433% and 54.956%,90.2569% and 81.7741%,97.0785% and 81.4958%,–
